# Laboratory results reported in ChEMBL document CHEMBL1909046, “DrugMatrix in vitro pharmacology data”.
# Target: T1, Alpha-1A adrenergic receptor (Rattus norvegicus, UniProt P43140)
# T1 sequence (P43140 whole entry): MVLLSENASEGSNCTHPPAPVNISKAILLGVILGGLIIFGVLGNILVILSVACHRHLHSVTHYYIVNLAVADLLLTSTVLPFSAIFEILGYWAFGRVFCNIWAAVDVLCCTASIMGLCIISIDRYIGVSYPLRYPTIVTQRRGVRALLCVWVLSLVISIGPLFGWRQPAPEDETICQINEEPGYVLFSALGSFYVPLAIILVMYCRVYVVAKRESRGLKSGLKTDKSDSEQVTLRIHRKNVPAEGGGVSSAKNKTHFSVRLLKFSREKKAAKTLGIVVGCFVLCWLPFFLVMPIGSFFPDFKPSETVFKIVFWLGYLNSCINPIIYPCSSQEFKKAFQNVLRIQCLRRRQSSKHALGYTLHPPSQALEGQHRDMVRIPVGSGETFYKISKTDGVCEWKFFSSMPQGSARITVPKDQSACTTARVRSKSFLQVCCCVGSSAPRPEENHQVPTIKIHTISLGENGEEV
# Test: DRUGMATRIX: Alpha-1A adrenergic receptor radioligand binding (ligand: prazosin)
# Format: cell membranes, Wistar, Submaxillary gland, Membrane
# Settings: Not Active = under 50% inhibition at 10 µM
row,Structure (SMILES),IC50
1,COc1cc2c3cc1Oc1cc(ccc1O)C[C@@H]1c4c(cc(OC)c(O)c4Oc4ccc(cc4)C[C@@H]3N(C)CC2)CC[N+]1(C)C.[Cl-],Not Active
2,CN(Cc1ccc(C(C)(C)C)cc1)Cc1cccc2ccccc12 [BUTENAFINE],Not Active
3,Sc1ncnc2nc[nH]c12 [MERCAPTOPURINE ANHYDROUS],Not Active
4,CC(C)(C)NCC(O)c1cc(Cl)c(N)c(Cl)c1 (stereo not drawn) [CLENBUTEROL],Not Active
5,Nc1nc2c(ncn2COCCO)c(=O)[nH]1 [ACYCLOVIR],Not Active
6,c1ccc2c(c1)c1cccc3ccc4cccc2c4c31 [BENZO[E]PYRENE],Not Active
7,O=C(O)CCCc1ccc(N(CCCl)CCCl)cc1 [CHLORAMBUCIL],Not Active
8,CC(C)(Oc1ccc(Cl)cc1)C(=O)O [CLOFIBRIC ACID],Not Active
9,CC1(C)O[C@@H]2C[C@H]3[C@@H]4CCC5=CC(=O)CC[C@]5(C)[C@@]4(F)[C@@H](O)C[C@]3(C)[C@]2(C(=O)CCl)O1 [HALCINONIDE],Not Active

# Target: T2, B2 bradykinin receptor (Homo sapiens, UniProt P30411); note: in other assays of this panel Not Active means under 50% inhibition at 10 µM
# T2 sequence (P30411 whole entry): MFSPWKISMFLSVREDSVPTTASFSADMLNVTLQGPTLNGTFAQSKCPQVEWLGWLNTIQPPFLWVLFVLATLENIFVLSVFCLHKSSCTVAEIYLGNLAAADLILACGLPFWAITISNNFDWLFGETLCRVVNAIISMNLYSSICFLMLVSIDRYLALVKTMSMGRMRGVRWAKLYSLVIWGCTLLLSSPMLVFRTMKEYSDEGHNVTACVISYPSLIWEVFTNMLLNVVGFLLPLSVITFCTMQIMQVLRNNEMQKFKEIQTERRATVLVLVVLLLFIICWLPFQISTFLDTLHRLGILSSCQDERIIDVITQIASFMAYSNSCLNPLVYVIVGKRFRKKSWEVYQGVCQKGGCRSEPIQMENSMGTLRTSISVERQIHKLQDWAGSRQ
# Test: not given
# Format: cell membranes, Membrane
# Settings: chem-1
row,Structure (SMILES),IC50
1,COc1cc2c3cc1Oc1cc(ccc1O)C[C@@H]1c4c(cc(OC)c(O)c4Oc4ccc(cc4)C[C@@H]3N(C)CC2)CC[N+]1(C)C.[Cl-],Not Active
2,CN(Cc1ccc(C(C)(C)C)cc1)Cc1cccc2ccccc12 [BUTENAFINE],Not Active
3,Sc1ncnc2nc[nH]c12 [MERCAPTOPURINE ANHYDROUS],Not Active
4,CC(C)(C)NCC(O)c1cc(Cl)c(N)c(Cl)c1 (stereo not drawn) [CLENBUTEROL],Not Active
5,Nc1nc2c(ncn2COCCO)c(=O)[nH]1 [ACYCLOVIR],Not Active
6,c1ccc2c(c1)c1cccc3ccc4cccc2c4c31 [BENZO[E]PYRENE],Not Active
7,O=C(O)CCCc1ccc(N(CCCl)CCCl)cc1 [CHLORAMBUCIL],Not Active
8,CC(C)(Oc1ccc(Cl)cc1)C(=O)O [CLOFIBRIC ACID],Not Active
9,CC1(C)O[C@@H]2C[C@H]3[C@@H]4CCC5=CC(=O)CC[C@]5(C)[C@@]4(F)[C@@H](O)C[C@]3(C)[C@]2(C(=O)CCl)O1 [HALCINONIDE],Not Active

# Target: T3, Substance-K receptor (Homo sapiens, UniProt P21452); note: in other assays of this panel Not Active means under 50% inhibition at 10 µM
# T3 sequence (P21452 whole entry): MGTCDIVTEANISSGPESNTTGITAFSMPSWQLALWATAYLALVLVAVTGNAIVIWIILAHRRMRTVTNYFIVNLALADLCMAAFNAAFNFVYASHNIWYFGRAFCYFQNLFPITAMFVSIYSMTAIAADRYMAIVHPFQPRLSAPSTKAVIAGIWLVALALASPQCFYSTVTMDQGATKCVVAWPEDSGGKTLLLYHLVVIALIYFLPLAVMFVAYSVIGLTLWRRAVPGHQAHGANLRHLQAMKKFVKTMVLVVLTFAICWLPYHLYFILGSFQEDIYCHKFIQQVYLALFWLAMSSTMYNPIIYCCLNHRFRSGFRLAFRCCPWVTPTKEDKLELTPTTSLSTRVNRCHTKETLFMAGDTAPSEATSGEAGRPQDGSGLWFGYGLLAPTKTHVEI
# Test: not given
# Format: cell membranes, CHO, Membrane
# Settings: cho
row,Structure (SMILES),IC50
1,COc1cc2c3cc1Oc1cc(ccc1O)C[C@@H]1c4c(cc(OC)c(O)c4Oc4ccc(cc4)C[C@@H]3N(C)CC2)CC[N+]1(C)C.[Cl-],Not Active
2,CN(Cc1ccc(C(C)(C)C)cc1)Cc1cccc2ccccc12 [BUTENAFINE],Not Active
3,Sc1ncnc2nc[nH]c12 [MERCAPTOPURINE ANHYDROUS],Not Active
4,CC(C)(C)NCC(O)c1cc(Cl)c(N)c(Cl)c1 (stereo not drawn) [CLENBUTEROL],Not Active
5,Nc1nc2c(ncn2COCCO)c(=O)[nH]1 [ACYCLOVIR],Not Active
6,c1ccc2c(c1)c1cccc3ccc4cccc2c4c31 [BENZO[E]PYRENE],Not Active
7,O=C(O)CCCc1ccc(N(CCCl)CCCl)cc1 [CHLORAMBUCIL],Not Active
8,CC(C)(Oc1ccc(Cl)cc1)C(=O)O [CLOFIBRIC ACID],Not Active
9,CC1(C)O[C@@H]2C[C@H]3[C@@H]4CCC5=CC(=O)CC[C@]5(C)[C@@]4(F)[C@@H](O)C[C@]3(C)[C@]2(C(=O)CCl)O1 [HALCINONIDE],Not Active

# Target: T4, Neuropeptide Y receptor type 1 (Homo sapiens, UniProt P25929); note: in other assays of this panel Not Active means under 50% inhibition at 10 µM
# T4 sequence (P25929 whole entry): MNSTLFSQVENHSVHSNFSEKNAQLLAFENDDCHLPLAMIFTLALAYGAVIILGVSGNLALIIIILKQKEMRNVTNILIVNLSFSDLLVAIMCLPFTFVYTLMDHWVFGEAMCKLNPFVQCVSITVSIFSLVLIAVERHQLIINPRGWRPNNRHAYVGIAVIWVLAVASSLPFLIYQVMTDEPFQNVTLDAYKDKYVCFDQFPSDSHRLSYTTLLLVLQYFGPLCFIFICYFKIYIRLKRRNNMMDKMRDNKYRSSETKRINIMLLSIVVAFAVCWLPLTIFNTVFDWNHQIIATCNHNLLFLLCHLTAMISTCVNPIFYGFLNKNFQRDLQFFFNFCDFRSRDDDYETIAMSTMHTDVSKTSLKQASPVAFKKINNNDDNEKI
# Test: not given
# Format: cell membranes, Membrane
# Settings: sk-n-mc
row,Structure (SMILES),IC50
1,COc1cc2c3cc1Oc1cc(ccc1O)C[C@@H]1c4c(cc(OC)c(O)c4Oc4ccc(cc4)C[C@@H]3N(C)CC2)CC[N+]1(C)C.[Cl-],Not Active
2,CN(Cc1ccc(C(C)(C)C)cc1)Cc1cccc2ccccc12 [BUTENAFINE],Not Active
3,Sc1ncnc2nc[nH]c12 [MERCAPTOPURINE ANHYDROUS],Not Active
4,CC(C)(C)NCC(O)c1cc(Cl)c(N)c(Cl)c1 (stereo not drawn) [CLENBUTEROL],Not Active
5,Nc1nc2c(ncn2COCCO)c(=O)[nH]1 [ACYCLOVIR],Not Active
6,c1ccc2c(c1)c1cccc3ccc4cccc2c4c31 [BENZO[E]PYRENE],Not Active
7,O=C(O)CCCc1ccc(N(CCCl)CCCl)cc1 [CHLORAMBUCIL],Not Active
8,CC(C)(Oc1ccc(Cl)cc1)C(=O)O [CLOFIBRIC ACID],Not Active
9,CC1(C)O[C@@H]2C[C@H]3[C@@H]4CCC5=CC(=O)CC[C@]5(C)[C@@]4(F)[C@@H](O)C[C@]3(C)[C@]2(C(=O)CCl)O1 [HALCINONIDE],Not Active

# Target: T5, Neuropeptide Y receptor type 2 (Homo sapiens, UniProt P49146); note: in other assays of this panel Not Active means under 50% inhibition at 10 µM
# T5 sequence (P49146 whole entry): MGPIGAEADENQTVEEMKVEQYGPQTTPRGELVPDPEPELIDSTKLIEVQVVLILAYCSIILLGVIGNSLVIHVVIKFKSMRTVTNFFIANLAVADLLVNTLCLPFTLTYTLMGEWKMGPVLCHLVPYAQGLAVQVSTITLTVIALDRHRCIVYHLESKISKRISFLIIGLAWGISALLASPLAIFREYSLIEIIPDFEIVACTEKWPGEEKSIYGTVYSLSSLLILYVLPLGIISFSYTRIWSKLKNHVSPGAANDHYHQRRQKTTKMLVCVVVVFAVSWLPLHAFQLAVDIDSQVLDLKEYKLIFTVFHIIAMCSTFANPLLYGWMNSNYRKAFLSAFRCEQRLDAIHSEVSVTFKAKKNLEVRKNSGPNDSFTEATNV
# Test: not given
# Format: cell membranes, Membrane
# Settings: kan-ts
row,Structure (SMILES),IC50
1,COc1cc2c3cc1Oc1cc(ccc1O)C[C@@H]1c4c(cc(OC)c(O)c4Oc4ccc(cc4)C[C@@H]3N(C)CC2)CC[N+]1(C)C.[Cl-],Not Active
2,CN(Cc1ccc(C(C)(C)C)cc1)Cc1cccc2ccccc12 [BUTENAFINE],Not Active
3,Sc1ncnc2nc[nH]c12 [MERCAPTOPURINE ANHYDROUS],Not Active
4,CC(C)(C)NCC(O)c1cc(Cl)c(N)c(Cl)c1 (stereo not drawn) [CLENBUTEROL],Not Active
5,Nc1nc2c(ncn2COCCO)c(=O)[nH]1 [ACYCLOVIR],Not Active
6,c1ccc2c(c1)c1cccc3ccc4cccc2c4c31 [BENZO[E]PYRENE],Not Active
7,O=C(O)CCCc1ccc(N(CCCl)CCCl)cc1 [CHLORAMBUCIL],Not Active
8,CC(C)(Oc1ccc(Cl)cc1)C(=O)O [CLOFIBRIC ACID],Not Active
9,CC1(C)O[C@@H]2C[C@H]3[C@@H]4CCC5=CC(=O)CC[C@]5(C)[C@@]4(F)[C@@H](O)C[C@]3(C)[C@]2(C(=O)CCl)O1 [HALCINONIDE],Not Active

# Target: Nitric oxide synthase 1 (Rattus norvegicus, UniProt P29476); note: in other assays of this panel Not Active means under 50% inhibition at 10 µM
# Sequence (P29476 whole entry): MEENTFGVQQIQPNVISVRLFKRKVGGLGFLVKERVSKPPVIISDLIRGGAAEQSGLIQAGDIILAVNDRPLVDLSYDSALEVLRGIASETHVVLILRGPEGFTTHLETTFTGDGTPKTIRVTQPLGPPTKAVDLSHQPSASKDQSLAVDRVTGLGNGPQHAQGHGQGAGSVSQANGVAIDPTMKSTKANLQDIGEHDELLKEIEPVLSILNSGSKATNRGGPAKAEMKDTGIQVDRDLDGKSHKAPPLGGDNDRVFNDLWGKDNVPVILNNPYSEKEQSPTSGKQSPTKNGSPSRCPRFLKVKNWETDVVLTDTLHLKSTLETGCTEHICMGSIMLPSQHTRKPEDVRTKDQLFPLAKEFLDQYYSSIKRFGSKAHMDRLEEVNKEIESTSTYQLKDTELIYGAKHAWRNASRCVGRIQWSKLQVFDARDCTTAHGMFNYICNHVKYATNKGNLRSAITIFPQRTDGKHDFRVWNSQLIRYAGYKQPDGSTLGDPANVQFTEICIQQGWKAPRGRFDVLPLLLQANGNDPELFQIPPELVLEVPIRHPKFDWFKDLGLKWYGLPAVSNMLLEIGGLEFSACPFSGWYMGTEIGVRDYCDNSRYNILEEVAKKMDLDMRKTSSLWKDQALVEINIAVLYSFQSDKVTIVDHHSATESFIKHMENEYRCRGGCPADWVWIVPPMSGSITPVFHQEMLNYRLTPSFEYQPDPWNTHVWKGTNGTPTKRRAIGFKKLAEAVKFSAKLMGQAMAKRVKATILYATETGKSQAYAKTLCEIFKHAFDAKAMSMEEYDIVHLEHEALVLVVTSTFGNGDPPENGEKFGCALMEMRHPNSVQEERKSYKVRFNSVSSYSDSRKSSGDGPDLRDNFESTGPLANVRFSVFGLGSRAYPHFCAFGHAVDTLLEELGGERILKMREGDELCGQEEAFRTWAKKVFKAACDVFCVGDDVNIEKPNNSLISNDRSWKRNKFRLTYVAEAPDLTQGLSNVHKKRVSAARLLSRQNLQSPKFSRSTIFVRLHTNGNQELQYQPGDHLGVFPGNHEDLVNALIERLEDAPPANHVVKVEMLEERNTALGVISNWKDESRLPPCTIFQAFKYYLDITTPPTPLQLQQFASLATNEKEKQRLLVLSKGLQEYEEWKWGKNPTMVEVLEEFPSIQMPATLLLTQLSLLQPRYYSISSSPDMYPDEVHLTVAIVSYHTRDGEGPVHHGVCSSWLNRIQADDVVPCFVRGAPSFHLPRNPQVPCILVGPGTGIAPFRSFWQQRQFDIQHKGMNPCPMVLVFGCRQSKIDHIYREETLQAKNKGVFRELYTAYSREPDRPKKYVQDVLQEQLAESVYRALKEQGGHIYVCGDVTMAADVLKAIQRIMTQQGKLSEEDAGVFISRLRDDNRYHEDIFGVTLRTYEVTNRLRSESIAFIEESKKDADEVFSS
# Test: not given
# Format: tissue-based, Cerebellum
# Settings: not given
row,Structure (SMILES),IC50
1,COc1cc2c3cc1Oc1cc(ccc1O)C[C@@H]1c4c(cc(OC)c(O)c4Oc4ccc(cc4)C[C@@H]3N(C)CC2)CC[N+]1(C)C.[Cl-],Not Active
2,CN(Cc1ccc(C(C)(C)C)cc1)Cc1cccc2ccccc12 [BUTENAFINE],Not Active
3,Sc1ncnc2nc[nH]c12 [MERCAPTOPURINE ANHYDROUS],Not Active
4,CC(C)(C)NCC(O)c1cc(Cl)c(N)c(Cl)c1 (stereo not drawn) [CLENBUTEROL],Not Active
5,Nc1nc2c(ncn2COCCO)c(=O)[nH]1 [ACYCLOVIR],Not Active
6,c1ccc2c(c1)c1cccc3ccc4cccc2c4c31 [BENZO[E]PYRENE],Not Active
7,O=C(O)CCCc1ccc(N(CCCl)CCCl)cc1 [CHLORAMBUCIL],Not Active
8,CC(C)(Oc1ccc(Cl)cc1)C(=O)O [CLOFIBRIC ACID],Not Active
9,CC1(C)O[C@@H]2C[C@H]3[C@@H]4CCC5=CC(=O)CC[C@]5(C)[C@@]4(F)[C@@H](O)C[C@]3(C)[C@]2(C(=O)CCl)O1 [HALCINONIDE],Not Active

# Target: Receptor tyrosine-protein kinase erbB-2 (Homo sapiens, UniProt P04626)
# Sequence (P04626 whole entry): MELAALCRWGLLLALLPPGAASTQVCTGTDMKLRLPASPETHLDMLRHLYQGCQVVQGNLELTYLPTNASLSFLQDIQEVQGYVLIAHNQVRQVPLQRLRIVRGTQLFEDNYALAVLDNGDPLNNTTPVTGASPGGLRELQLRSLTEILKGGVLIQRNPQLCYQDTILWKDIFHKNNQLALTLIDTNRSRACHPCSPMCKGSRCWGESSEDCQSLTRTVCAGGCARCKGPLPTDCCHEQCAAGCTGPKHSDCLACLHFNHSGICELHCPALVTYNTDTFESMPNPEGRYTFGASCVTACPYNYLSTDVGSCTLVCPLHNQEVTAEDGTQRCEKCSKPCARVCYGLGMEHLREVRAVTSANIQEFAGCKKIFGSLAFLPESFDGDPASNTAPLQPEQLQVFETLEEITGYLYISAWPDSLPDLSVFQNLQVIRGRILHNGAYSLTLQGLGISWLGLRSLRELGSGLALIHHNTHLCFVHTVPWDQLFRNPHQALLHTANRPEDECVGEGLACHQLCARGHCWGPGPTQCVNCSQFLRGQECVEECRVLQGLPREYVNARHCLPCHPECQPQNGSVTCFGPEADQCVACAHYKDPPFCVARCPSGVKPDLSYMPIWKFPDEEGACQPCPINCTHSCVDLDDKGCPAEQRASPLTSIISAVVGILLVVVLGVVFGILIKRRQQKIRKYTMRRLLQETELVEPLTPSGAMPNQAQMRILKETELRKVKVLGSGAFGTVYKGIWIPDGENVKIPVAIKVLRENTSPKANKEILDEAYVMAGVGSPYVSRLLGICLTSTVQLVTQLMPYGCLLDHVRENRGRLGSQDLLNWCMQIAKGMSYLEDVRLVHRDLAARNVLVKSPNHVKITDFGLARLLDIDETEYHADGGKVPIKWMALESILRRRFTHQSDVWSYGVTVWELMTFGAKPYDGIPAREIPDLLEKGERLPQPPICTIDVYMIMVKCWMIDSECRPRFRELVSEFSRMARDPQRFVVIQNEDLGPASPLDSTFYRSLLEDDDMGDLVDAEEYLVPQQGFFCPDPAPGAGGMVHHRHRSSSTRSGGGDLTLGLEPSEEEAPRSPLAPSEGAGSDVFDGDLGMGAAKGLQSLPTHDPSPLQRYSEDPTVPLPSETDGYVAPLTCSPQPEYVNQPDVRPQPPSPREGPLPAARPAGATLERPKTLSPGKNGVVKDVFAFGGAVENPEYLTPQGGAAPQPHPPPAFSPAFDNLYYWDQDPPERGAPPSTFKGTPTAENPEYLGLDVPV
# Test: biochemical
# Format: cell-based, Insect cells
# Settings: insect cells
row,Structure (SMILES),IC50
1,COc1cc2c3cc1Oc1cc(ccc1O)C[C@@H]1c4c(cc(OC)c(O)c4Oc4ccc(cc4)C[C@@H]3N(C)CC2)CC[N+]1(C)C.[Cl-],Not Active
2,CN(Cc1ccc(C(C)(C)C)cc1)Cc1cccc2ccccc12 [BUTENAFINE],Not Active
3,Sc1ncnc2nc[nH]c12 [MERCAPTOPURINE ANHYDROUS],Not Active
4,CC(C)(C)NCC(O)c1cc(Cl)c(N)c(Cl)c1 (stereo not drawn) [CLENBUTEROL],Not Active
5,Nc1nc2c(ncn2COCCO)c(=O)[nH]1 [ACYCLOVIR],Not Active
6,c1ccc2c(c1)c1cccc3ccc4cccc2c4c31 [BENZO[E]PYRENE],Not Active
7,O=C(O)CCCc1ccc(N(CCCl)CCCl)cc1 [CHLORAMBUCIL],Not Active
8,CC(C)(Oc1ccc(Cl)cc1)C(=O)O [CLOFIBRIC ACID],Not Active
9,CC1(C)O[C@@H]2C[C@H]3[C@@H]4CCC5=CC(=O)CC[C@]5(C)[C@@]4(F)[C@@H](O)C[C@]3(C)[C@]2(C(=O)CCl)O1 [HALCINONIDE],Not Active
